We go through 1 substance from PMC5869686 (Journal of the American Chemical Society, 2018).

For this experiment, the target named is succinate dehydrogenase (mitochondrial Sdh, complex II) (Bos taurus, UniProt P35720+Q3T189+Q95123). Put plainly: colorimetric mitochondrial complex II activity assay. The format is biochemical.
Chain of succinate dehydrogenase (mitochondrial Sdh, complex II) (P35720 30-169): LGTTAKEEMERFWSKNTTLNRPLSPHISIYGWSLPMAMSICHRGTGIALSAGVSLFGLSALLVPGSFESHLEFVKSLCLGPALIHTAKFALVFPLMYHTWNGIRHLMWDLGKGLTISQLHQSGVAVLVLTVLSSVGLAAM
Chain of succinate dehydrogenase (mitochondrial Sdh, complex II) (Q3T189 29-280): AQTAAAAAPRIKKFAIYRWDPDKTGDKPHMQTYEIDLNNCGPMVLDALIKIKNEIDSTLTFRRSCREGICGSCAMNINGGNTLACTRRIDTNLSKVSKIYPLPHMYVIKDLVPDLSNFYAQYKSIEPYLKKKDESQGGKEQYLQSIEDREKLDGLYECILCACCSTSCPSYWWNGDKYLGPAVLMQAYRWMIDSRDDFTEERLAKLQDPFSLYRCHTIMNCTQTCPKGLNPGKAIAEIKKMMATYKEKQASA
Chain of succinate dehydrogenase (mitochondrial Sdh, complex II) (Q95123 56-158): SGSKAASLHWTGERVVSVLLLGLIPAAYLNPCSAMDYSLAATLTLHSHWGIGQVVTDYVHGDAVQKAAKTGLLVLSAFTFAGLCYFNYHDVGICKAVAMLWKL
Chain of succinate dehydrogenase (mitochondrial Sdh, complex II) (P31039 44-665 partner): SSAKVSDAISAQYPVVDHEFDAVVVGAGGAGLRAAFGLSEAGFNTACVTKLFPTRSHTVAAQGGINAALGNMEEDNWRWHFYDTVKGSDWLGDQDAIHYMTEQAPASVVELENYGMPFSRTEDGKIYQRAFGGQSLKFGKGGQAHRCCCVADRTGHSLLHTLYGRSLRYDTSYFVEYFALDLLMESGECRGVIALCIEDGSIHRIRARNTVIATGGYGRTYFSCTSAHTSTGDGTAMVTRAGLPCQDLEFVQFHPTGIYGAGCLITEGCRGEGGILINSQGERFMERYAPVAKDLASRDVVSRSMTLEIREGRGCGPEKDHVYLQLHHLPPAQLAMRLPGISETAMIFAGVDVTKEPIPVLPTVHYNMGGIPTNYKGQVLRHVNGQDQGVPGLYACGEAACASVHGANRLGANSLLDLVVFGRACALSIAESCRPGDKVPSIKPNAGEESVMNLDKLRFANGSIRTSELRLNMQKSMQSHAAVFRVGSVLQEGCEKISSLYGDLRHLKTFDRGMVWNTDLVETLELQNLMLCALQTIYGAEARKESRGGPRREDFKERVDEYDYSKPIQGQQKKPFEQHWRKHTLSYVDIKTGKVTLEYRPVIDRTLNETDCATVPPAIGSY

In turn, promysalin [(-)-1] gave a 50% inhibitory concentration (IC50) of 2.5 µM.
